Measured values reported in US10584159B2, “Renilla based biosensors for monitoring biomolecule localization and trafficking in cells” (The Royal Institution for the Advancement of …, priority 2014, dated 2020).
Starred links: 1 amine or outer side, 2 acyl side, 3 side chain; linkers in the order of their positions; H or OH if unused. Positions of bridges follow the written chain, without caps; N, C: chain ends. Non-standard residues stand in square brackets, D forms with d. Residues, ends and D or L forms follow the SMILES beside them. No end group written: not given here. *: point of attachment. Leu(3R-OH,Nα-propionyl) = CCC(=O)N[C@H](C(=O)*)[C@H](O)C(C)C; X1 = CC(C)[C@@H](O[*:3])[C@H](N[*:1])C(=O)[*:2]; NMeT = CN[C@H](C(=O)O)[C@@H](C)O; dPhLac = O=C(O)[C@H](O)Cc1ccccc1; NMeA = CN[C@@H](C)C(=O)O; NMeDha = C=C(NC)C(=O)O

Experiments:
Assay type in all cases: cell-based
AT1R [1] = target: T1, AT1R (Homo sapiens, UniProt P30556); experiment: PKN-based RhoA activation BRET assay (PKN-crib-RlucII/rGFP-CAAX) with AT1R
T1 construct: expressed in transfected cells; host or cells: HEK293SL
T1 sequence (P30556 1-359): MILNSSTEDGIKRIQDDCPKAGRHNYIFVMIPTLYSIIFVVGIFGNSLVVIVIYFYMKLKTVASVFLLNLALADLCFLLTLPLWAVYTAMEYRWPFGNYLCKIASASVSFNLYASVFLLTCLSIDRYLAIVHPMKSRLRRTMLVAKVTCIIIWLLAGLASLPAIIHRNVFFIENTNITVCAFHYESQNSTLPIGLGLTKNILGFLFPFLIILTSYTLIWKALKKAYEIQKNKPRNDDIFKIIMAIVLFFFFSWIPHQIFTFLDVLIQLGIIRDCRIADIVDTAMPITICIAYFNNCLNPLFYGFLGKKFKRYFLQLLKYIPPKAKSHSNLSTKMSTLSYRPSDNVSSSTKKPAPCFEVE
Protocol: (§1) BRET measurements for FIGS. 1B to 9D, 25D to 25F. The following day of transfection, cells were detached and replated onto poly-ornithine coated white 96-well plate at a density of 25,000 cells per well. The next day, cells were washed once with pre-warmed Tyrode's buffer (140 mM NaCl, 2.7 mM KCl, 1 mM CaCl2, 12 mM NaHCO3, 5.6 mM D-glucose, 0.5 mM MgCl2, 0.37 mM NaH2PO4, 25 mM HEPES, pH 7.4), and then stimulated with either various concentrations of ligands in Tyrode's buffer for the indicated time, or single concentration of ligands for various times at 37° C. For recycling experiment, after stimulating the cells with the ligands for 30 min at 37° C., they were washed either three times with ice-cold Tyrode's buffer or once with Tyrode's buffer/three times with acid (50 mM sodium citrate, pH 4.0)/two times with Tyrode's buffer. All the washing steps were performed on ice. […] The cell-permeable substrate, coelenterazine 400a was added at a final concentration of 5 μM in Tyrode's buffer 3-4 min before BRET measurements. […] The BRET signal was determined by calculating the ratio of the light intensity emitted by the GFP10 or rGFP over the light intensity emitted by the RlucII. All the BRET measurements were performed in triplicate at 37° C.
PKN-based RhoA activation assay. For FIGS. 25B-D, HEK293SL cells were grown in DMEM supplemented with 6% fetal bovine serum (FBS) and 20 μg/ml gentamycin, at 37° C. Cells were seeded at a density of 7.5×10^5 cells per 100 mm dishes and were transiently transfected the next day with constructs encoding AT1R (3 μg) along with PKN-crib-RlucII (90 ng) and rGFP-CAAX (480 ng) using calcium phosphate method as described previously. After 24 h, cells were detached and seeded onto poly-ornithine-coated 96-well white plates at a density of 25 000 cells per well in media. The next day, cells were washed once with Tyrode's buffer and left in 80 μl of Tyrode's buffer at 37° C. When indicated, cells were treated with Ubo-Qic 100 nM for 30 min or C3 toxin for 3 μg/ml (in FIG. 25I), 4 hours at 37° C. Cell stimulation and BRET measurements were done at RT. BRET signals were monitored by addition of Coel-400a to a final concentration of 5 μM using a Synergy2 (BioTek®) microplate reader. […] For FIG. 25B, a transfection mix of 200 ng of TPαR, 20 ng PKN-RlucII, 600 ng CAAX-rGFP, complemented to 2 μg with ssDNA and PEI at a ratio of PEI:DNA of 3:1, is added to 3 ml of Hek293SL (350 000 cells/ml). Cells were seeded on poly-D-lysine pretreated plates. […] Cells were stimulated for 2 min with the indicated doses of U46619. […] For FIGS. 25I and J, a transfection mix of 200 ng of TPαR, 20 ng PKN-RlucII, 600 ng CAAX-rGFP, complemented to 2 μg with ssDNA and PEI at a ratio of PEI:DNA of 3:1, is added to 3 ml of Hek293SL (350,000 cells/ml). Cells were seeded on poly-D-lysine pretreated plates. 24 h post-transfection, the Rho inhibitor (CT04; Cytoskeleton, Inc) was added when indicated, overnight at final concentration 2 μg/ml. 48 h post-transfection, cells were washed and preincubated in Tyrode +1 mM CaCl2 at 37° C. for 60 min then treated, as indicated, with 100 nM of U46619 or 1 μg/ml of Rho activator II (CN03; Cytoskeleton, Inc) for 1 min at 37° C. […] BRET was measured at 37° C., using a Tristar Microplate Reader (Berthold Technologies).

AT1R [2] = target: T2, AT1R (Homo sapiens, UniProt P30556); experiment: AT1R sorting to rab4 vesicles BRET (AT1R-RlucII/rGFP-rab4); set-up: expressed in transfected cells; host or cells: HEK293SL (HEK293 for the screen)
T2 sequence (P30556 with tags, fused parts or gaps): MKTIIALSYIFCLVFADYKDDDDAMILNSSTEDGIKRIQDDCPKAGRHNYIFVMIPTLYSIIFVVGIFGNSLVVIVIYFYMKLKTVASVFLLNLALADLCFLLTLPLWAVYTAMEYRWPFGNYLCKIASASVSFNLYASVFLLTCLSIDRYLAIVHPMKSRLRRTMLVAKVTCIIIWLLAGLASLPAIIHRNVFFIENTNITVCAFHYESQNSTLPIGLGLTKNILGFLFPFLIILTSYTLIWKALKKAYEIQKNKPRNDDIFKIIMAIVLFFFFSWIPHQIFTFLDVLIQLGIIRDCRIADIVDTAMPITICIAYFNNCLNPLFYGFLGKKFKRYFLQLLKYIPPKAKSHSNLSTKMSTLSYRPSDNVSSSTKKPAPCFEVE
Protocol: as §1

AT1R [3] = target: T2, AT1R; experiment: AT1R trafficking to endosomes BRET (AT1R-RlucII/rGFP-endofinFYVE); set-up: expressed in transfected cells; host or cells: HEK293SL (HEK293 for the screen)
Protocol: as §1
Data Analysis. Estimation of the t1/2 and the EC50 values for ligand-mediated endocytosis were calculated using the GraphPad® Prism curve fitting program The curves presented throughout this study, representing the best fits, and were generated using this GraphPad® Prism program as well.

[4] = 100 nM Ubo, 30 min pre-incubation

Row | Molecule | effect on AngII-mediated BRET increase (Rho sensor) (AT1R [1]; 100 nM Ubo, 100 nM AngII 70 s) | effect on AngII-bound AT1R in Rab4 vesicles (AT1R [2]; 100 nM Ubo, 100 nM AngII 10 min) | effect on DVG- and SI-mediated accumulation of receptors in endosomes (AT1R [3]; [4]) | reduction of targeting of AngII-bound AT1R to Rab5 containing endosomes (AT1R [3]; [4]) | impact of Gq inhibition on ligand-mediated Rho activation (AT1R [1]; 100 nM Ubo-Qic 30 min, ligand 4 min) | time at which BRET signal plateaued (AT1R [2]; 100 nM AngII, 100 nM SI, 1 μM DVG) [min] | time to maximal AT1R internalization into endosomes (AT1R [3]; 100 nM SI or 1 μM DVG) [min] | less efficacious than AngII at promoting AT1R concentration in early endosomes (AT1R [3]; 100 nM SI or 1 μM DVG vs 100 nM AngII) [%] | receptor accumulation in endosomes, compared to AngII (AT1R [3]; 40 min)
1 | C=C1C(=O)N[C@@H](C)C(=O)N(C)[C@@H](C)C(=O)N[C@@H]([C@H](OC(=O)[C@@H](NC(=O)CC)[C@H](O)C(C)C)C(C)C)C(=O)N(C)[C@@H]([C@@H](C)OC)C(=O)O[C@H](C(C)C)[C@H](NC(C)=O)C(=O)O[C@H](Cc2ccccc2)C(=O)N1C [Ubo-QIC] (Ac-[X1][dPhLac][NMeDha]A[NMeA][X1](Leu(3R-OH,Nα-propionyl))[NMeT](Me); ester 1-C) | partially blocked | increased AngII-bound AT1R in Rab 4 and Rab11 vesicles | had no effect | more than 25% | – | – | – | – | –
2 | DRVYVHPG [DVG, [Asp^1,Val^5, Gly^8]-AngII] | – | – | – | – | did not affect | 10 | 10 | 40 | promoted less receptor accumulation in endosomes
